According to article PMC9307952, “Lipoate protein ligase B primarily recognizes the C8-phosphopantetheine arm of its donor substrate and weakly binds the acyl carrier protein” (The Journal of Biological Chemistry, 2022):

What was measured:
MmLipT2 (mice LipT2) = MmLipT2 (mice LipT2) (Mus musculus, UniProt Q9D009); conditions: 75 μM C8-CoA, 25 μM GcvH, 50 mM Tris-HCl, 500 mM NaCl, pH 8.0, 37 °C
E. coli LipB (EcLipB) = E. coli LipB (EcLipB) (Escherichia coli, UniProt P60720); conditions: CoA:LipB 10:1 (STD, 283 K) or 8:1 (31P, 298 K), 50 mM Tris, 200 mM NaCl, pH 7.8
Sequence of E. coli LipB (EcLipB) (P60720 whole entry): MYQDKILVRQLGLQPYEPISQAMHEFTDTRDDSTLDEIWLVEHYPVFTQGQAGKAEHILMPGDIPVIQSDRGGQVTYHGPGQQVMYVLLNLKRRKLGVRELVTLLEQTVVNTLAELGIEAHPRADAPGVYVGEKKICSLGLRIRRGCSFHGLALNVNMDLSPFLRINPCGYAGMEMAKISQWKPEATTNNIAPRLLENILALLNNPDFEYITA

Sequence of MmLipT2 (mice LipT2) (Q9D009 whole entry): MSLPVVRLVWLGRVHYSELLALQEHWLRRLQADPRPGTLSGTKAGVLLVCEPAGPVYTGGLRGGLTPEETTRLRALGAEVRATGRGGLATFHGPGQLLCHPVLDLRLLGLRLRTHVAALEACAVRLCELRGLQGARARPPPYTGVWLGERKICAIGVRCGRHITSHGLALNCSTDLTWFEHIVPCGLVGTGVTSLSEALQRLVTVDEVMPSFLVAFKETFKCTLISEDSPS

Compound: CCCCCCCC(=O)SCCNC(=O)CCNC(=O)[C@H](O)C(C)(C)COP(=O)(O)OP(=O)(O)OC[C@H]1O[C@@H](n2cnc3c(N)ncnc32)[C@H](O)[C@@H]1OP(=O)(O)O [C8-CoA]
- octanoyl transfer to E. coli GcvH, SDS-PAGE band shift and HPLC (MmLipT2 (mice LipT2)): MmLipT2 also successfully converted E. coli GcvH using C8-CoA as a donor substrate

Compound: CC(C)(COP(=O)(O)OP(=O)(O)OC[C@H]1O[C@@H](n2cnc3c(N)ncnc32)[C@H](O)[C@@H]1OP(=O)(O)O)[C@@H](O)C(=O)NCCC(=O)NCCS [CoA]
- 1H STD NMR; 31P NMR (E. coli LipB (EcLipB)): suggesting binding of the adenosine ring
